Experimental data from ChEMBL document CHEMBL1201862, “PubChem BioAssay data set” (2004).
One block for each compound: values may come before it. Activity calls are given as the source filed them.

Key:
[1] = target: Mitogen-activated protein kinase 10 (Homo sapiens, UniProt P53779); experiment: Dose response biochemical screening assay for inhibitors of c-Jun N-Terminal Kinase 3 (JNK3). [Related pubchem assays: 746 ]
[2] = target: FAD-linked sulfhydryl oxidase ALR (Homo sapiens, UniProt P55789); experiment: ALR-catalysed DTT oxidation blockers – biochemical, H2O2 detection, luminescence, cherry-pick, dose response (AID 493248)
Aminopeptidase N = target: T1, Aminopeptidase N (Plasmodium falciparum FcB1/Columbia, UniProt O96935); experiment: malaria alanyl aminopeptidase activity blockers – biochemical, fluorogenic H-Leu-NHMec substrate, 1536-well (AID 1445); parameters: species or system Plasmodium falciparum 3D7, 3D7
T1 sequence (O96935 whole entry): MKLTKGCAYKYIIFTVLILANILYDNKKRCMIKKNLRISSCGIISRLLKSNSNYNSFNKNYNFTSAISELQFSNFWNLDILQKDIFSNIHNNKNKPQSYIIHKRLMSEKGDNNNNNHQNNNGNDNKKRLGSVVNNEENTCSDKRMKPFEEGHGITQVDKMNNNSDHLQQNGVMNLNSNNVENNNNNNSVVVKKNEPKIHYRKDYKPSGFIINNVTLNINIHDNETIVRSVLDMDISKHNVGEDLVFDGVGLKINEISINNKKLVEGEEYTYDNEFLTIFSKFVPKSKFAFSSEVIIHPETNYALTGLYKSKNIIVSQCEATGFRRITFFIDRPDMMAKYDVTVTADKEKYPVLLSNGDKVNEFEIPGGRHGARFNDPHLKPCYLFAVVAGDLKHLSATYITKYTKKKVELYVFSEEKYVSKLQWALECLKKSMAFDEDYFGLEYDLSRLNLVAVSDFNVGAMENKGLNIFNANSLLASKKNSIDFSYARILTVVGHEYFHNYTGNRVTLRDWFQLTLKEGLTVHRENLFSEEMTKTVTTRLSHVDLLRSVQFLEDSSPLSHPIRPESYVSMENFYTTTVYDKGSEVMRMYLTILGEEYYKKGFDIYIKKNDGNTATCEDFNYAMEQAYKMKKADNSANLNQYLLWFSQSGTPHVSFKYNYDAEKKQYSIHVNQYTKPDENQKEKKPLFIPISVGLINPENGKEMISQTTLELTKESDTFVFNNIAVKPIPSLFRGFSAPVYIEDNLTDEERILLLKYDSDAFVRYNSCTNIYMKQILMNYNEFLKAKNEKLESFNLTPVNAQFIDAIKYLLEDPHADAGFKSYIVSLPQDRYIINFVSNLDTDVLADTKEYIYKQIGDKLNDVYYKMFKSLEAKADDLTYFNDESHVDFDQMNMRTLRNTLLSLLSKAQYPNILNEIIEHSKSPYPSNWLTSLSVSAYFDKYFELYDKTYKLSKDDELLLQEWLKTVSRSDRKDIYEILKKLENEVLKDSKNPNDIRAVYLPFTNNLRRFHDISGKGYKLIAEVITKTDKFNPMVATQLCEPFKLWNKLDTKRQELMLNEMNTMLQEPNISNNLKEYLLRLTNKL

[3] = target: T2, Heat shock factor protein 1 (Mus musculus, UniProt P38532); experiment: enhancement of HSF1-driven luciferase signal – cell-based, NIH3T3, luminescence, dose retest, confirmation (AID 435004); assay type: functional;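 also: stress induced by proteasome inhibitor MG132 added 30 min after compound; luciferase reporter driven by HSF1 response element in NIH3T3 cells; actives raise luminescence as potentiators of the MG132 stress response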
T2 sequence (P38532 whole entry): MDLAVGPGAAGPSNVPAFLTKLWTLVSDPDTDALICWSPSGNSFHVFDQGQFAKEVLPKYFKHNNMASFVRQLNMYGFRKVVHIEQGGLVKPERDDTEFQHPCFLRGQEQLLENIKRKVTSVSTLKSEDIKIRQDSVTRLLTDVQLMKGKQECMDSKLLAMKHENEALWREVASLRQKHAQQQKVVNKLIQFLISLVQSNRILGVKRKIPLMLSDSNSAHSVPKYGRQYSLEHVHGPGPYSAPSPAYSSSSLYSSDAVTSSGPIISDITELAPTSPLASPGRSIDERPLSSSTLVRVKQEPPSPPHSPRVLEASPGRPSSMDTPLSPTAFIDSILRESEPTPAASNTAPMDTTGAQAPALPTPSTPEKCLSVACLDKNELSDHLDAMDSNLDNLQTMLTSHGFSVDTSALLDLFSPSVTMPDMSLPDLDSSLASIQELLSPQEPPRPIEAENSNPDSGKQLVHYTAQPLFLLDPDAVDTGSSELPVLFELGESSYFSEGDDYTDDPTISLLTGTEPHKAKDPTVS

[4] = viability of uninfected HEp-2 cells – cell-based, HTS, cytotoxicity control for RSV inhibitor project, dose response (AID 2410); assay type: functional; conditions: human respiratory syncytial virus
Caspase-6 = Caspase-6 (Homo sapiens, UniProt P55212); experiment: inhibition of CASP6 peptide cleavage – biochemical, VEID-R110 fluorescence, cherry-pick, dose response (AID 720632)
Paired box protein Pax-8 = Paired box protein Pax-8 (Homo sapiens, UniProt Q06710); experiment: PAX8 transcriptional activity inhibition in RMG-I – RMG-I cells, luciferase, cherry-pick, dose response (AID 687027); assay type: functional, cell-based;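 also: luciferase reporter driven by Pax8 target thyroperoxidase promoter measured by SteadyGlo luminescence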
[5] = general cell-killing toxicity readout – plate reader, dry powder samples, cytotoxicity control for PAX8 inhibitor project, dose response (AID 743021); assay type: functional, cell-based
[6] = Shn3 3'UTR reporter signal decrease – cell-based, Clone20 osteoblasts, firefly luciferase, cherry-pick, set 2, Schnurri-3 inhibitor project, dose response (AID 720490); assay type: functional;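 also: actives lower the luminescence signal as inhibitors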
[7] = reduced cellular PGC1a acetyl-lysine signal – cell-based, cherry-picked samples, dose response (AID 720514); assay type: functional;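 also: potency may reflect raised or lowered acetylation signal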
[8] = non-specific 3'UTR reporter inhibition in Clone20-Shn3RL – cell-based, Renilla luciferase, cherry-picked, counter-screen for Shn3 inhibitor project, dose response (AID 624133); assay type: functional
[9] = reduction of Shn3 3'UTR-driven luciferase in osteoblasts – cell-based, Clone20 osteoblasts, firefly luciferase, cherry-picked, dose response (AID 624132); assay type: functional;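 also: firefly luciferase luminescence from reporter carrying the Shn3 3'UTR in osteoblasts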
[10] = EF1alpha-driven Renilla reporter with control 3'UTR suppression – Clone20-Shn3RL cells, dual-Glo, cherry-pick, set 2, counter-screen for Shn3 3'UTR targeting project, dose response (AID 720724); assay type: functional, cell-based; conditions: Dual-Go Shn3RL
[11] = loss of viability in HepG2 cells – cell-based, CellTiter-Glo, cherry-picked, cytotoxicity control for Shn3 inhibitor project, dose response (AID 624134); assay type: functional
Cytochrome P450 2C19 = Cytochrome P450 2C19 (Homo sapiens, UniProt P33261); experiment: qHTS Assay for Inhibitors and Substrates of Cytochrome P450 2C19. [Related pubchem assays: 410 ]; assay type: ADME; conditions: read-out: Potency
Chain of Cytochrome P450 2C19 (P33261 whole entry): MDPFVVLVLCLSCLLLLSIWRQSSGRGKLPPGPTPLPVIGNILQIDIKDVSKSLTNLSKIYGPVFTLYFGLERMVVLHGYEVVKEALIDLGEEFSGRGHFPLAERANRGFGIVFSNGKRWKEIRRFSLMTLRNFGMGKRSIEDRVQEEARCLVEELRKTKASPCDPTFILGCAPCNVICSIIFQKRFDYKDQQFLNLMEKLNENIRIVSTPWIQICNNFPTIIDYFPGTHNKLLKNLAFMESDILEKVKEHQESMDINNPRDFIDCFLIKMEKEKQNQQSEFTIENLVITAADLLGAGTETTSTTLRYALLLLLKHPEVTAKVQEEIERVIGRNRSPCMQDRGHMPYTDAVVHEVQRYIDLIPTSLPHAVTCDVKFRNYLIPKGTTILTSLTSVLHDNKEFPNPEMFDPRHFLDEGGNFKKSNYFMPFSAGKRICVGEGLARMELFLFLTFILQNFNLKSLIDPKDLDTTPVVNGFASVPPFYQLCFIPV

Chain of Caspase-6 (P55212 24-179 limits assumed): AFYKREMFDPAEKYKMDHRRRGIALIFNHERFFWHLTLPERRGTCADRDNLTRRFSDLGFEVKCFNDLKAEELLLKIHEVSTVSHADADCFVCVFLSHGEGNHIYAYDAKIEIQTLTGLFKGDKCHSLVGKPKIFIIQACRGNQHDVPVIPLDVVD
Chain of Caspase-6 (P55212 194-293 limits assumed): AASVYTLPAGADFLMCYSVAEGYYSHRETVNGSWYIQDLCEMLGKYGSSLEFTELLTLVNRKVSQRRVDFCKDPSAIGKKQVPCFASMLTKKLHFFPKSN
Chain of Mitogen-activated protein kinase 10 (P53779 whole entry): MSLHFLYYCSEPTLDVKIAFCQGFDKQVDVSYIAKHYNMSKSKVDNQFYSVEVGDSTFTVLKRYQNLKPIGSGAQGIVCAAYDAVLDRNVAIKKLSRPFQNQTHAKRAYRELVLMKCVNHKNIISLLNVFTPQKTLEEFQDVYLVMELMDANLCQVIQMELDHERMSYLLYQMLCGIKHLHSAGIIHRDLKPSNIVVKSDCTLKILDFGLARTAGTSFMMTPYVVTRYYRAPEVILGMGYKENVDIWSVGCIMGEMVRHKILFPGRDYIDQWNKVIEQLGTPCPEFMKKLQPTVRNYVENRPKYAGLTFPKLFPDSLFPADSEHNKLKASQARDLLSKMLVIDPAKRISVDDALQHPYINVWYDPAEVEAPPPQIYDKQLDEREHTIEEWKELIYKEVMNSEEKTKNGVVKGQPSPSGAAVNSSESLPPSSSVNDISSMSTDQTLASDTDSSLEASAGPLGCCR
Chain of Paired box protein Pax-8 (Q06710 whole entry): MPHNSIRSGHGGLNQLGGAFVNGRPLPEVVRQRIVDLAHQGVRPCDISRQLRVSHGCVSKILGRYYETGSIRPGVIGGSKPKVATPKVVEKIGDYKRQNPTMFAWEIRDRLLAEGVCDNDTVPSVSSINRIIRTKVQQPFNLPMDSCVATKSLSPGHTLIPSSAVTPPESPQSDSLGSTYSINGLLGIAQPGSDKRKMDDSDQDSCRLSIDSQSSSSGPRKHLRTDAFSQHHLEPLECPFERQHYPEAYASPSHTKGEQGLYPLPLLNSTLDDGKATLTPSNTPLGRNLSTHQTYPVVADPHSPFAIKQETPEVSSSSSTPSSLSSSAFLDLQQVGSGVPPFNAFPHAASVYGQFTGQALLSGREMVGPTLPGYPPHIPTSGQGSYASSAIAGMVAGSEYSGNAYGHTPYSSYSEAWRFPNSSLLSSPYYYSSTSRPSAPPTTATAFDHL
Chain of FAD-linked sulfhydryl oxidase ALR (P55789 whole entry): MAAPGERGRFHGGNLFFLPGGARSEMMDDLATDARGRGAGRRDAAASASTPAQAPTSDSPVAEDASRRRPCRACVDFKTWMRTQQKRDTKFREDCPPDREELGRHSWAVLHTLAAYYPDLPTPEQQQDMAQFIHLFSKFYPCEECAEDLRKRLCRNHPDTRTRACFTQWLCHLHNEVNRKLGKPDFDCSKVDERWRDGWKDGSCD

IC50 [1]: 18.4 µM (not active)
AC50 [2]: 0.773 µM (active)
SMILES: c1ccc(Nc2ccccc2Nc2ccccn2)nc1

IC50 (Aminopeptidase N): 25.4 µM (active)
EC50 [3]: 15.6 µM (active)
AC50 (Caspase-6): 5.09 µM (active)
SMILES: CCOC(=O)COc1ccc(Br)cc1/C=C/c1nc(O)nc(O)c1[N+](=O)[O-]
CC50 [4]: 12.7 µM (active)

The next lines start with the compound.

SMILES: Oc1nc2ccccc2n1C1CCN(C(CCc2ccccc2)c2nnnn2Cc2ccccc2)CC1 (stereo unspecified)
AC50 (Paired box protein Pax-8): 1.4 µM (active)
AC50 [5]: 11.4 µM (active)
AC50 [6]: 3.97 µM (active)
AC50 [7]: 3.88 µM (active)
AC50 [8]: 60.9 µM (active)
AC50 [9]: 1.23 µM (active)
AC50 [10]: 20.3 µM (active)
AC50 [11]: 13.5 µM (active)

SMILES: O=C(Cc1cccs1)N1Cc2ccccc2-n2nncc2C1
AC50 (Caspase-6): 5.36 µM (active)

SMILES: O=c1cc(-c2ccc(O)c(O)c2)oc2cccc(O)c12
AC50 (Cytochrome P450 2C19): 15.8 µM (inconclusive)
